In test [1] the target is T1, human recombinant GCS expressed in insect cells (Homo sapiens, UniProt Q16739).
T1 construct: made in house; host or cells: insect cells
T1 sequence (Q16739 1-394): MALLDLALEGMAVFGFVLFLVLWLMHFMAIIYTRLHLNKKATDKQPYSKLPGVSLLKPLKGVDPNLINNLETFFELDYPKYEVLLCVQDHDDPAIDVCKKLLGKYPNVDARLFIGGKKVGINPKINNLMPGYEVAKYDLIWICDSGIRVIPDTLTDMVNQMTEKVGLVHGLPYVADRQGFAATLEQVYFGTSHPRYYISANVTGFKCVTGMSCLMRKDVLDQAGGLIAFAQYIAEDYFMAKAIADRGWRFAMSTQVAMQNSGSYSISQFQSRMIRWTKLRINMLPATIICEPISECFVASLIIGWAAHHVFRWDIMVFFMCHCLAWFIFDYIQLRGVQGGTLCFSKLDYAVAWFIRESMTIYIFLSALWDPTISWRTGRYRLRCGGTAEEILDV
Nature of the test: Inhibition of GCS. The test is classed as biochemical. Conditions: read-out: Inhibition of glucosylceramide synthase (IC50 μM). The procedure: The assay for inhibition of GCS was performed essentially as described in Platt et al., J. Biol. Chem., 1994, 269, 27108, the enzyme source being human recombinant GCS expressed in insect cells.

Test [2] deals with T2, non-lysosomal-β-glucocerebrosidase (Homo sapiens, UniProt Q9HCG7).
T2 construct: whole cell extracts of MCF7 (a human breast carcinoma cell line) was used as the source of the enzyme; endogenous in cells; host or cells: MCF7 whole cell extract
T2 sequence (Q9HCG7 1-927): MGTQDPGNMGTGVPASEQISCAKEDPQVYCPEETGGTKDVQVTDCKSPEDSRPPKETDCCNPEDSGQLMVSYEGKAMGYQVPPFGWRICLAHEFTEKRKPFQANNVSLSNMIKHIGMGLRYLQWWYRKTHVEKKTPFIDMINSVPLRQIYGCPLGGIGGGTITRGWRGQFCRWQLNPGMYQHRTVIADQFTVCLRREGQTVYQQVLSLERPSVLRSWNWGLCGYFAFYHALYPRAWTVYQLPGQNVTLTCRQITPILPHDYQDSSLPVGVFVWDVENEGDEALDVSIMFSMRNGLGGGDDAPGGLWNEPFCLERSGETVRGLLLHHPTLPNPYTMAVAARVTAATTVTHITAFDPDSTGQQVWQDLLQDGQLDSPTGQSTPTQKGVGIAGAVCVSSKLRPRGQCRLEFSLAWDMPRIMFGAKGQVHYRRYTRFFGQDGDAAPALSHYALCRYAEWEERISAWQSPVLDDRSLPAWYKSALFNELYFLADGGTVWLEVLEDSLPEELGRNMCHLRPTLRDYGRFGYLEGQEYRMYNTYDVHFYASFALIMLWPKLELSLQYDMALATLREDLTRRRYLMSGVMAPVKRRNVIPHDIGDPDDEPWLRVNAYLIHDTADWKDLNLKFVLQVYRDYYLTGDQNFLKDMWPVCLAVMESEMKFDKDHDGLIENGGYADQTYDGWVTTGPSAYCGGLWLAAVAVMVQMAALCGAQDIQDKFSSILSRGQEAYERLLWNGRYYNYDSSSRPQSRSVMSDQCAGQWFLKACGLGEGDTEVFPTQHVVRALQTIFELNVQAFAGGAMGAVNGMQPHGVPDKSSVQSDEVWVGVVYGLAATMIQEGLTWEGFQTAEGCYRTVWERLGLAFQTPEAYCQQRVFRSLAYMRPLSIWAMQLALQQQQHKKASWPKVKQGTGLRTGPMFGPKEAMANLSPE
Nature of the test: Inhibition of non-lysosomal-β-glucocerebrosidase. The test is classed as biochemical. Conditions: whole cell extracts of MCF7 as enzyme source; 5 mM 4-MU β-glucoside; 0.2M citrate/phosphate pH 5.8. Here is the method: Inhibition of Non-Lysosomal-β-Glucocerebrosidase
The assay for inhibition of non-lysosomal-β-glucocerebrosidase was essentially carried out as described in Overkleeft, H. S. et al., J. Biol. Chem., 1998, 273, 26522-26527, with the following differences: whole cell extracts of MCF7 (a human breast carcinoma cell line) was used as the source of the enzyme instead of splenic membrane suspensions; 5 mM instead of 3 mM, 4-MU β-glucoside was used as substrate and 0.2M citrate/phosphate (pH 5.8) was used instead of McIlvaine buffer.

What is called IC50 is the concentration that inhibits the measured activity by half. Regarding `CCCCCOc1ccc(CN2C[C@H](O)[C@@H](O)[C@@H](O)[C@@H]2CO)cc1` [Example 1, 3,4,5-Piperidinetriol, 2-(hydroxymethyl)-1-[(4-(pentyloxy)phenyl)methyl]-, (2S,3S,4R,5S)], the IC50 in test [1] amounted to 4.8 µM; in test [2], 2.5 µM.

The values above are taken from patent US8022219B2, “2-hydroxymethy1-3,4,5-trihydroxy-1-(4-pentyloxybenzyl) piperidine as glucosylceramide synthase (Gcs) inhibitor” (Actelion Pharmaceuticals Ltd., priority 2003, dated 2011).
